{"source": "patent US20260263521A1", "about": "“ANTI-CD200R1 ANTIBODY AND USE THEREOF” (AIMED BIO INC., priority 2023, published 2026)", "test_system": "Th1/Th2 cytokines in nasal polyp patient specimens", "test": "Ex vivo cytokine inhibition in nasal polyp patient specimens (CBA)", "assay_type": "cell-based, human", "details": "antibody drugs 100 nM; three DUPIXENT-resistant samples of 10; Th2 cytokines IL-5, IL-4", "method": "The specimens were finely chopped and minced, and then additionally processed twice using the m_lung_02 protocol on a gentleMACS (Miltenyi Biotec) to obtain tissue fragments. After centrifugation at 1500 rpm for 3 minutes to ensure that all tissues formed a pellet, RPMI media+10% FBS was aliquoted in the pellet at a 1:3 ratio. The pellet was thoroughly mixed with the medium and dispensed into a 96-well u-bottom plate, 100 μl per well, in triplicate for each drug. To establish the screening assay, results were obtained first using dexamethasone (a steroid-based positive control drug), followed by treatment with the anti-CD200R1 antibody (P001009v1) and other drugs used for the corresponding disease. All antibody-based drugs were treated at 100 nM, while steroid drugs such as dexamethasone were treated at 20 μM.\nAfter drug treatment, the cells were incubated at 37° C. for 1 hour. To increase overall cytokine levels, 4 μl of a 10-fold diluted cell stimulation cocktail 500× (Invitrogen #00-4970-03) was added on each well and mixed. After reaction for 24 hours at 37° C., the supernatant was collected by centrifugation. Using the human Th1/Th2 cytokine cytometric bead array (CBA) kit (BD, #550749), cytokine levels in the supernatant were measured and the degree of drug responsiveness of each sample was determined."}
{"substance": "DUPIXENT®: drug used as a conventional therapeutic agent for atopic dermatitis and allergic diseases [reference compound]", "values": [{"measurement": "cytokine suppression in nasal polyp patient samples", "value": "no suppression"}]}
